The values that follow come from US20100256086A1, “NON-HYDROLYZABLE NUCLEOSIDE DI- OR TRI-PHOSPHATE DERIVATIVES AND USES THEREOF” (priority 2007, published 2010).

A short description of data set [1]: Stability in human blood serum, Method A. Type of data set: in vitro ADME. The note with it: human blood serum and RPMI-1640, 37° C. The protocol: Preparation of the Human Blood Serum: Blood Taken from Healthy Volunteers was obtained from a blood bank (Tel-Hashomer hospital, Israel), stored for 12 h at 4° C. and centrifuged in plastic tubes at 1500 g for 15 min at room temperature. The serum was separated and stored at −80° C.
The assay mixture, containing a 40 mM nucleotide derivative solution in deionized water (4.5 μl), human blood serum (180 μl) and RPMI-1640 (540 μl), was incubated at 37° C. for 1, 4, 8, 16, 24, 48, 72 and 96 h. The samples were then treated with 0.6 M of hydrochloric acid (430 μl), centrifuged for 2 min (13,000 g, 4° C.), neutralized by addition of 4 M of KOH, centrifuged for 2 min (13,000 g, 4° C.) and freeze-dried. The stability of the nucleotide was evaluated by HPLC for monitoring possible dephosphorylation products. The mixture was separated on a Gemini analytic column (5u C-18 110A, 150×4.60 mm) with gradient elution [0.01 M KH2PO4 pH=4.5 (A)/acetonitrile (B), 100:0→60:40, A:B, 20 min for 2, 3A and 3B; 100:0→95:5, A:B, 10 min for ATP] and flow rate of 1 ml/min. The hydrolysis rate was determined by measuring the change in the integration of the respective HPLC peaks with time.

A short description of data set [2]: Chemical stability at pH 1.4 and 37° C. evaluated by HPLC. Type of data set: physicochemical. Particulars: pH 1.4, 37° C., after 19 h. The protocol:
The stability of 3 (isomer B) in the appropriate buffer solution (0.2 M HCl/KCl, pH=1.4) at 37° C. was evaluated by HPLC-electrospray ionization (ESI)MS for 5 days at 7-17 h intervals, and its hydrolysis rate, based on the HPLC integration changes of the 3B peak with time, was fit to a pseudo first-order exponential decay rate equation, as shown in FIGS. 2A-2B. In addition to 3B, degradation products 6, 7 and 8 were identified in the hydrolysis mixture, as depicted in Scheme 3. For instance, after 19 h, 50% of 3B was degraded giving rise to 37% of AMP-α-B and AMP-α-H (6 and 7, respectively. Both appear at the same retention time; however, MS enabled the identification of these compounds) and 13% adenosine (FIG. 2A). […]
The stability of 4 (isomer B) in the appropriate buffer solution (pH=1.4) at 37° C. was evaluated by HPLC to monitor possible dephosphorylation products. […] The solution was kept in an oil bath at 37° C. and its composition was analyzed by HPLC-MS, using a Gemini analytic column (5u C-18 110A, 150×4.60 mm) and gradient elution with Solvent System I (see Example 1) at 89:11 A:B for 15 min and then 82:18 to 74:26 A:B for 20 min at a flow rate of 1 ml/min. […] The hydrolysis rate of 4 was determined by measuring the change in the integration of the HPLC peaks of the degradation products, 6, 7 and 8, with time.

The target of the next data set is T1, turkey P2Y1 (Meleagris gallopavo, UniProt P49652).
T1 construct: expressed in transfected cells
T1 sequence (P49652 whole entry): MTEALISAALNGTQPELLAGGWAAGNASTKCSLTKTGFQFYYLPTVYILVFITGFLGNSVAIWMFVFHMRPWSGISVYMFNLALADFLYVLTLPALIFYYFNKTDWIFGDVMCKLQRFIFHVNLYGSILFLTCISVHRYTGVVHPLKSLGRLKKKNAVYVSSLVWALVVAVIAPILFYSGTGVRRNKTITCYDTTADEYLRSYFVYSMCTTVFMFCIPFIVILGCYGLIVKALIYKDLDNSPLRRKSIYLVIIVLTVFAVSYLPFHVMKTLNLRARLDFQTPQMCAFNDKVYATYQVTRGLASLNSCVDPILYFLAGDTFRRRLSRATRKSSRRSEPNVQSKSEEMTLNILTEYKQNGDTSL
Put plainly: Intracellular calcium measurement ([Ca2+]i, fura-2) in 1321N1 astrocytoma cells. Type of data set: cell-based. The protocol:
(§1) Human 1321N1 astrocytoma cells stably expressing the turkey P2Y1, human P2Y2, human P2Y4 or rat P2Y6 were grown in Dulbecco's modified Eagle's medium containing 5% (v/v) fetal bovine serum, 100 units/ml penicillin, 100 μg/ml streptomycin and 500 μg/ml Geneticin (G-418, Life Technologies, Inc). Changes in the intracellular free calcium concentration, [Ca^2+]i were detected by dual-excitation spectrofluorometric analysis of cell suspensions loaded with fura-2, as previously described (Garrad et al., 1998; Grynkiewicz et al., 1985). Cells were assayed in 10 mM Hepes-buffered saline (pH 7.4) containing 1 mM CaCl2 and 1 mM MgCl2. The cells were pelleted in a microfuge and resuspended in 2 ml of buffer. Concentration-response data were analyzed with the Prism curve fitting program (GraphPAD Software, San Diego, Calif.). Three experiments were conducted on separate days for each P2Y receptor subtype.
(§2) The activities of compounds 2, 4B, 17, 18, 19A, 21 (isomers A and B) were examined at the G protein-coupled P2YRs, P2Y1, P2Y2, P2Y4 and P2Y6 expressed in human 1321N1 astrocytoma cells, based on intracellular calcium measurements, as described in Experimental above. In particular, the activity of compound 2, 4B and 19 was examined at P2Y1R, P2Y2R, P2Y4R and P2Y6R, and the activity of compounds 17, 18 and 21 was examined at P2Y1R only. The experiments were conducted by Prof. Gary A. Weisman from Columbia-Missouri University, Columbia, Mo., USA.

The target of data set [3] is T2, calf intestine alkaline phosphatase (Bos taurus, UniProt P19111).
T2 construct: purchased Fermentas Inc., Glen Burnie, Md
T2 sequence (P19111 20-506): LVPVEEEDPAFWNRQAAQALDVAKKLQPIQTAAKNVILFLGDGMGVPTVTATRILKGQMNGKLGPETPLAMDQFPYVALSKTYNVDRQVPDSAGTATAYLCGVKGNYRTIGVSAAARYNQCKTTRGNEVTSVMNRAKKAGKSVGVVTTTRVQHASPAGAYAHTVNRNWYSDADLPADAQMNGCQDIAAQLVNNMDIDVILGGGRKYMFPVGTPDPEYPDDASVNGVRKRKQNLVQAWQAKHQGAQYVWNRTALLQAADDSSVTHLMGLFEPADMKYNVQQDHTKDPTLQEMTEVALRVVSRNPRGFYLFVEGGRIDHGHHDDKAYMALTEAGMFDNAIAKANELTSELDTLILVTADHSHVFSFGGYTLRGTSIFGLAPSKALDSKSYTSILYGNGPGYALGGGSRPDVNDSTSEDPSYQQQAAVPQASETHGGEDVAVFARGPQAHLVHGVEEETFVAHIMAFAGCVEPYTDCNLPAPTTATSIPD
Put plainly: Enzymatic stability to alkaline phosphatase. It counts as in vitro ADME. Particulars: 37° C., as in Example 6. The protocol:
Enzyme activity was measured by the release of p-nitrophenol from the nucleotide derivatives using a UV-vis spectrophotometer at 405 nm. Relative activity and resistance of nucleotides to enzymatic hydrolysis were determined at 37° C. Briefly, 32.5 μl of nucleotide derivative (77 μg/ml in 0.1 M Tris-HCl and 0.1 M MgCl2, pH 7.5) and 6 μl of deionized water were incubated with calf intestine alkaline phosphatase (Fermentas Inc., Glen Burnie, Md., 1 unit/μl, 6.25 μl at 37° C. final pH=9.8). After 30 min, the reaction was stopped by incubation at 80° C. for 30 min. The stability of the nucleotide derivative was evaluated by HPLC to monitor possible dephosphorylation products. The mixture was separated on a Gemini analytic column (5u C-18 110A, 150×4.60 mm) using gradient elution with Solvent System I (see Example 1) at 90:10 to 70:30 A:B for 3A and 3B, and 82:18 to 50:50 for 4A, 4B and 2 over 20 min and at a flow rate of 1 ml/min.

The target in another data set is T3, rP2Y1R (Rattus norvegicus, UniProt P49651).
T3 construct: host or cells: HEK293 cells
T3 sequence (P49651 whole entry): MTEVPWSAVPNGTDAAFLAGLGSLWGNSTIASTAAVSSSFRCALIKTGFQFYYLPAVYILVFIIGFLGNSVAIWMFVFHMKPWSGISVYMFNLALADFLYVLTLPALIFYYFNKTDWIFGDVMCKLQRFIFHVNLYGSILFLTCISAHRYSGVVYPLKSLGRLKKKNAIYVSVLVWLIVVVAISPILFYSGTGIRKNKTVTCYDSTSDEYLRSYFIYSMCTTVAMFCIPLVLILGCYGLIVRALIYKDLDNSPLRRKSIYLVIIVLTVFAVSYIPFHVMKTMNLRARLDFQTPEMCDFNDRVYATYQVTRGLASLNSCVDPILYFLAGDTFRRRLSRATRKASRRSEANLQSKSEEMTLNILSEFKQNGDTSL
Particulars: HEK293 cells expressing rP2Y1R, Ca2+ mobilization; cited from earlier work.

The nature of data set [4]: Glucose challenge in cannulated Wistar rats (insulin secretagogue efficacy). It counts as in vivo, rat. The note with it: starved Wistar rats.
From the text: The objective of this experiment is to study in vivo the efficacy of the compounds of the present invention as insulin secretion enhancing molecules, following a single oral gavage (per os) administration of glucose to cannulated Wister rats, by measuring the blood glucose and insulin levels following administration of the tested compound to the cannulated rats intra venues through the cannule.
A total of about 40 healthy 10-13 week old Wister rats are used. Animals are acclimatized for at least 4 days prior to commencement of treatment and are fed with non-medicated commercial sterile rodent food ad libitum. Drinking tap water are available ad libitum.
About 48 hours prior treatment, rats are weighted and a population uniform in weight (about 90% of the animals) is taken for cannulation. In particular, animals are anesthetized by 2.5% isofluran 97.5% dry air inhalation, and a P52 cannula is surgically inserted and fixed in the jugular vein and flushed with 0.3-0.5 ml 5% heparinized saline after cannulation (and thereafter, immediately after each blood collection). In case a technical problem such as fixation or clotting arises with a rat's indwelling cannula, another rat is cannulated and replace the previously allocated rat in the study.
On the day of treatment, the cannule of each one of the rats is checked, the rats are weighed, and the glucose level of each one of the rats is checked via the tail vain. […]
Glucose and insulin levels are measured 30 minutes prior to glucose administration (and prior to glibenclamide administration in the case of the positive control group); immediately before and 5 minutes after glucose administration; 15 minutes after glucose administration, namely, 5 minutes after administration of the tested compound or saline (in the cases of the first and the negative control groups, respectively); and then 30, 45, 60 120 and 150 minutes after glucose administration. […]
A further data set addresses T4, rat P2Y6 (Rattus norvegicus, UniProt Q63371).
T4 construct: expressed in transfected cells
In words: Intracellular calcium measurement ([Ca2+]i, fura-2) in 1321N1 astrocytoma cells. Type of data set: cell-based. Set-up: key to Compound-induced activation of [Ca2+], P2Y6, response class: sr = slight response at 100 μM; nr = no response. The note with it: 1321N1 cells expressing rat P2Y6. The protocol:
as §1, §2

The target in a further data set is T5, human P2Y2 (Homo sapiens, UniProt P41231).
T5 construct: expressed in transfected cells
T5 sequence (P41231 whole entry): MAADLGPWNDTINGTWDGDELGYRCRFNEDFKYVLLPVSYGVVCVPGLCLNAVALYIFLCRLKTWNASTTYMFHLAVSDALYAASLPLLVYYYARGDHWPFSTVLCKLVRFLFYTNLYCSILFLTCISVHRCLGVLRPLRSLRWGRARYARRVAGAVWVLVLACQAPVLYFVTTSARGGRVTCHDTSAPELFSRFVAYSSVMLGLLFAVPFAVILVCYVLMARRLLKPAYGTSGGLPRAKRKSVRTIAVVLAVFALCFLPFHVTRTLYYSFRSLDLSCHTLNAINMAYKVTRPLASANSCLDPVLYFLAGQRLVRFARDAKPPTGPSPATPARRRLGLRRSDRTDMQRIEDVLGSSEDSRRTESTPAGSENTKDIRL
Described as above. It counts as cell-based. Particulars: 1321N1 cells expressing human P2Y2. Set-up: key to Compound-induced activation of [Ca2+], P2Y2, response class: sr = slight response at 100 μM; nr = no response. The protocol: as §1, §2

The target in a further data set is T6, human P2Y4 (Homo sapiens, UniProt P51582).
T6 construct: expressed in transfected cells
T6 sequence (P51582 whole entry): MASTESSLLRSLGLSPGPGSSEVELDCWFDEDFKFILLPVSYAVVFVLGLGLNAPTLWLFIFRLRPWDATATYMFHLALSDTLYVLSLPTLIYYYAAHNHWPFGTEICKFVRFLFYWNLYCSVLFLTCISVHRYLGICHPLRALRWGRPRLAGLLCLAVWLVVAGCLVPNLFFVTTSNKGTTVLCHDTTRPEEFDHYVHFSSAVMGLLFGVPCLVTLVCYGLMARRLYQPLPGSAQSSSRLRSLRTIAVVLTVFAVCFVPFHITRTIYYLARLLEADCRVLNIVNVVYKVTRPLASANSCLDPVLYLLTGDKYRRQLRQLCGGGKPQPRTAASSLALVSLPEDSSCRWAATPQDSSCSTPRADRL
The data set is described as above. It counts as cell-based. Particulars: 1321N1 cells expressing human P2Y4. Set-up: key to Compound-induced activation of [Ca2+], P2Y4, response class: sr = slight response at 100 μM; nr = no response. The protocol:
as §1, §2

The nature of data set [5]: Stability in human blood serum (Example 10).

Each structure is given as a SMILES string. pEC50: −log10 of the molar value. Entries after “also recorded” stand apart in the source; their conditions may differ. Read-outs that look alike come from different tables or passages of the source.

T4 sequence (Q63371 whole entry): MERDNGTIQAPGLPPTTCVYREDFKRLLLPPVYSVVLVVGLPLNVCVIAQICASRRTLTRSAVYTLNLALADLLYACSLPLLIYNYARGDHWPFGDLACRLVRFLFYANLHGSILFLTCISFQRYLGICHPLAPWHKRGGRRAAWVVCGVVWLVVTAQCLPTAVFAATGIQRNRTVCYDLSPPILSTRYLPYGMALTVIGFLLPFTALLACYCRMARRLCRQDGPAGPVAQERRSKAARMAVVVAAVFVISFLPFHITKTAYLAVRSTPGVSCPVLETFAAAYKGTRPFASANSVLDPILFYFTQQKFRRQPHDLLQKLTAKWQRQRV

Consider `B[P@](=O)(OC[C@H]1O[C@@H](n2cnc3c(N)ncnc32)[C@H](O)[C@@H]1O)OP(=O)(O)CP(=O)(O)O` (single isomer, unassigned) [Compound 3B, Adenosine-β,γ-CH2-5′-O-(1-boranotriphosphate)], for which the “half-life in human blood serum” value in data set [1] is 47.1 h. Also, in data set [2], the fraction degraded is 50%. Further, the “activity at P2Y1R, in words” value on turkey P2Y1 was “practically inactive”. Besides, at turkey P2Y1 (P2Y1, P2Y2, P2Y4 and P2Y6 tested), the “activities at the P2YRs tested” value is recorded as “insignificant activities”.
Regarding `Nc1ncnc2c1ncn2[C@@H]1O[C@H](COP(=O)(O)OP(=O)(O)O)[C@@H](O)[C@H]1O` [ADP, reference compound], the “half-life in human blood serum” value was “about 2 h”. Further, in data set [3], the “t1/2 to alkaline phosphatase” value is reported as “about 4 h”.
`CSc1nc(N)c2ncn([C@@H]3O[C@H](COP(=O)(O)OP(=O)(O)OP(=O)(O)O)[C@@H](O)[C@H]3O)c2n1` [Compound 2-MeS-ATP, 2-MeS-ATP]: the pEC50 at rP2Y1R is 9.00.
For `[BH3-]P(=O)(OC[C@H]1O[C@@H](n2cnc3c(N)nc(SC)nc32)[C@H](O)[C@@H]1O)OP(=O)([O-])[O-].[Na+].[Na+].[Na+]` (stereo partly shown) [Compound 19, 2MeS-adenosine-5′-O-(Pα-borano) diphosphate], the “glucose levels after glucose challenge relative to saline treated rats” value in [4] (2.5 mg/kg IV 10 minutes after glucose challenge, preliminary study) is on record as “reduced the glucose levels; also recorded: reduces glycemia”.
Regarding `[BH3-]P(=O)(OC[C@H]1O[C@@H](n2cnc3c(N)nc(SC)nc32)[C@H](O)[C@@H]1O)OP(=O)([O-])[O-].[Na+].[Na+].[Na+]` (stereo partly shown) [Compound 19A, 2MeS-adenosine-5′-O-(Pα-borano) diphosphate], the “t1/2 to alkaline phosphatase” value in [3] was “about 6 h”. At rat P2Y6, the “Compound-induced activation of [Ca2+], P2Y6, response class” value was “nr”. Further, the “Compound-induced activation of [Ca2+], P2Y2, response class” value on human P2Y2 is reported as “nr”. Moreover, on turkey P2Y1 (human 1321N1 astrocytoma cells expressing turkey P2Y1, read-out: Compound-induced activation of [Ca2+] EC50, P2Y1), the negative-log EC50 (pEC50) is 7.42. Besides, the “Compound-induced activation of [Ca2+], P2Y4, response class” value on human P2Y4 was “nr”. Also, in [5] (Example 10), the “half-life in human blood serum” value is above 24 h. In addition, the “percentage of the compound hydrolyzed” value in data set [5] (human blood serum, after 24 h) is reported as 25-40%.
Consider `COc1ccc(Cl)cc1C(=O)NCCc1ccc(S(=O)(=O)NC(=O)NC2CCCCC2)cc1` [glibenclamide, reference compound], for which the “glucose levels after glucose challenge relative to saline treated rats” value in [4] (0.25 mg/kg per os 30 minutes prior to glucose, positive control) is “reduced the glucose levels”.
